Reference: ChEMBL document CHEMBL4342457, “Clerodane Diterpenoids Isolated from the Leaves of Casearia graveolens” (J Nat Prod, 2020)

Experiments:
[1] = system: HepG2; test: Cytotoxicity against human HepG2 cells after 48 hrs by MTT assay; assay type: functional, cell-based; conditions: HepG2, 48 h
[2] = system: A549; test: Cytotoxicity against human A549 cells after 48 hrs by MTT assay; assay type: functional, cell-based; conditions: A549, 48 h
[3] = system: A549; test: Induction of apoptosis human A549 cells assessed as live cells at 4 uM after 48 hrs by Annexin V-FITC/PI double staining based flow cytometric analysis (reference value: 88%); assay type: functional
[4] = system: A549; test: Induction of cell cycle arrest in human A549 cells assessed as accumulation at G2 phase at 1 uM incubated for 48 hrs by propidium iodide staining based flow cytometry (reference value: 30.41%); assay type: functional
[5] = system: A549; test: Induction of cell cycle arrest in human A549 cells assessed as accumulation at G1 phase at 1 uM incubated for 48 hrs by propidium iodide staining based flow cytometry (reference value: 29.60%); assay type: functional
[6] = system: A549; test: Induction of apoptosis human A549 cells assessed as necrotic cells at 2 uM after 48 hrs by Annexin V-FITC/PI double staining based flow cytometric analysis (reference value: 0.3%); assay type: functional
[7] = system: A549; test: Induction of apoptosis human A549 cells assessed as necrotic cells at 1 uM after 48 hrs by Annexin V-FITC/PI double staining based flow cytometric analysis (reference value: 0.3%); assay type: functional
[8] = system: A549; test: Induction of cell cycle arrest in human A549 cells assessed as accumulation at S phase at 2 uM incubated for 48 hrs by propidium iodide staining based flow cytometry (reference value: 39.99%); assay type: functional
[9] = system: A549; test: Induction of cell cycle arrest in human A549 cells assessed as accumulation at G1 phase at 2 uM incubated for 48 hrs by propidium iodide staining based flow cytometry (reference value: 29.60%); assay type: functional
[10] = system: A549; test: Induction of cell cycle arrest in human A549 cells assessed as accumulation at G2 phase at 1.5 uM incubated for 48 hrs by propidium iodide staining based flow cytometry (reference value: 30.41%); assay type: functional
[11] = system: A549; test: Induction of apoptosis human A549 cells assessed as live cells at 2 uM after 48 hrs by Annexin V-FITC/PI double staining based flow cytometric analysis (reference value: 88%); assay type: functional
[12] = system: A549; test: Induction of apoptosis human A549 cells assessed as early apoptotic cells at 1 uM after 48 hrs by Annexin V-FITC/PI double staining based flow cytometric analysis (reference value: 4.3%); assay type: functional
[13] = system: A549; test: Induction of apoptosis human A549 cells assessed as late apoptotic cells at 4 uM after 48 hrs by Annexin V-FITC/PI double staining based flow cytometric analysis (reference value: 7.4%); assay type: functional
[14] = system: A549; test: Induction of apoptosis human A549 cells assessed as late apoptotic cells at 1 uM after 48 hrs by Annexin V-FITC/PI double staining based flow cytometric analysis (reference value: 7.4%); assay type: functional
[15] = system: A549; test: Induction of cell cycle arrest in human A549 cells assessed as accumulation at S phase at 1.5 uM incubated for 48 hrs by propidium iodide staining based flow cytometry (reference value: 39.99%); assay type: functional
[16] = system: A549; test: Induction of cell cycle arrest in human A549 cells assessed as accumulation at S phase at 1 uM incubated for 48 hrs by propidium iodide staining based flow cytometry (reference value: 39.99%); assay type: functional
[17] = system: A549; test: Induction of cell cycle arrest in human A549 cells assessed as accumulation at G2 phase at 2 uM incubated for 48 hrs by propidium iodide staining based flow cytometry (reference value: 30.41%); assay type: functional
[18] = system: A549; test: Induction of cell cycle arrest in human A549 cells assessed as accumulation at G1 phase at 1.5 uM incubated for 48 hrs by propidium iodide staining based flow cytometry (reference value: 29.60%); assay type: functional
[19] = system: A549; test: Induction of apoptosis human A549 cells assessed as necrotic cells at 4 uM after 48 hrs by Annexin V-FITC/PI double staining based flow cytometric analysis (reference value: 0.3%); assay type: functional
[20] = system: A549; test: Induction of apoptosis human A549 cells assessed as early apoptotic cells at 4 uM after 48 hrs by Annexin V-FITC/PI double staining based flow cytometric analysis (reference value: 4.3%); assay type: functional
[21] = system: A549; test: Induction of apoptosis human A549 cells assessed as early apoptotic cells at 2 uM after 48 hrs by Annexin V-FITC/PI double staining based flow cytometric analysis (reference value: 4.3%); assay type: functional
[22] = system: A549; test: Induction of apoptosis human A549 cells assessed as late apoptotic cells at 2 uM after 48 hrs by Annexin V-FITC/PI double staining based flow cytometric analysis (reference value: 7.4%); assay type: functional
[23] = system: A549; test: Induction of apoptosis human A549 cells after 48 hrs by Annexin V-FITC/PI double staining based flow cytometric analysis; assay type: functional, cell-based
[24] = system: A549; test: Induction of apoptosis human A549 cells assessed as live cells at 1 uM after 48 hrs by Annexin V-FITC/PI double staining based flow cytometric analysis (reference value: 88%); assay type: functional

COC(=O)C[C@](O)(CCCC(C)(C)O)C(=O)O[C@@H]1C(OC)=C[C@]23CCCN2CCc2cc4c(cc2[C@H]13)OCO4 [OMACETAXINE MEPESUCCINATE]
IC50 [1]: 0.0345 µM
IC50 [2]: 0.0316 µM

C=C/C(C)=C/C[C@]1(C)[C@H](C)C[C@H](O)[C@@]23C(=C[C@H](OC(=O)C(C)CC)C[C@@H]12)[C@@H](OC)O[C@H]3OC(C)=O (some centres not stated)
IC50 [1]: > 10 µM
IC50 [2]: > 10 µM

C=C/C(C)=C/C[C@]1(C)[C@H](C)C[C@H](O)[C@@]23C(=C[C@H](OC(=O)C(C)C)C[C@@H]12)[C@@H](OC)O[C@@H]3OC(C)=O
IC50 [1]: > 10 µM
IC50 [2]: > 10 µM

C=C/C(C)=C/C[C@]1(C)[C@H](C)C[C@H](O)[C@@]23C(=C[C@@H](OC(=O)C(C)CC)C[C@@H]12)[C@@H](OC)O[C@H]3OC(C)=O (some centres not stated)
IC50 [1]: > 10 µM
IC50 [2]: > 10 µM

C=C/C(C)=C/C[C@]1(C)[C@H](C)C[C@H](O)[C@@]23C(=C[C@H](OC(=O)CC(C)C)C[C@@H]12)[C@@H](OC)O[C@H]3OC
IC50 [1]: > 10 µM
IC50 [2]: > 10 µM

C=C/C(C)=C/C[C@]1(C)[C@H](C)C[C@H](O)[C@@]23C(=C[C@H](OC(=O)C(C)C)C[C@@H]12)[C@@H](OC)O[C@H]3OC(C)=O
IC50 [1]: > 10 µM
IC50 [2]: > 10 µM

C=C/C(C)=C/C[C@]1(C)[C@H](C)C[C@H](O)[C@@]23C(=C[C@H](OC(=O)C(C)C)C[C@@H]12)[C@@H](OC)O[C@H]3OC
IC50 [1]: > 10 µM
IC50 [2]: > 10 µM

C=C/C(C)=C/C[C@]1(C)[C@H](C)C[C@H](O)[C@@]23C(=C[C@@H](OC(C)=O)C[C@@H]12)[C@@H](OC)O[C@H]3OC(C)=O
IC50 [1]: > 10 µM
IC50 [2]: > 10 µM

C=C/C(C)=C/C[C@]1(C)[C@H](C)C[C@H](O)[C@@]23C(=C[C@H](OC(=O)CC(C)C)C[C@@H]12)[C@@H](OC)O[C@H]3OC(C)=O
IC50 [1]: > 10 µM
IC50 [2]: > 10 µM

C=C/C(C)=C/C[C@]1(C)[C@H](C)C[C@H](O)[C@@]23C(=C[C@H](OC(=O)CC(C)C)C[C@@H]12)[C@@H](OC(C)=O)O[C@H]3OC(C)=O
Activity [3]: 5.4%
Activity [4]: 9.01%
Activity [5]: 70.25%
Activity [6]: 0.8%
Activity [7]: 1.1%
Activity [8]: 15.37%
Activity [9]: 79.44%
Activity [10]: 4.3%
Activity [11]: 52.7%
IC50 [1]: 4.6 µM
Activity [12]: 6.2%
Activity [13]: 74.5%
Activity [14]: 18.2%
Activity [15]: 25.39%
Activity [16]: 20.75%
Activity [17]: 5.19%
Activity [18]: 70.31%
Activity [19]: 5.1%
Activity [20]: 15%
Activity [21]: 26.7%
Activity [22]: 19.9%
IC50 [2]: 1.9 µM
Activity [23]: Dose-dependent effect
Activity [24]: 74.5%
